# pIC50: −log10 of the molar value.
# Tested on: fulvestrant-resistant MCF7:5C-FR cells
# Test: Fulvestrant-resistant breast cancer cell viability (cell proliferation) assay
# Format: cell-based
# Conditions: growth inhibition in fulvestrant-resistant MCF-7:CFR cells, 120 hrs
# Experimental: For the cell proliferation assay, the fulvestrant-resistant MCF7:5C-FR cells were seeded at about 2000 to about 2500/well in 96-well plates. The next day, compounds were add to the cells at desired serial concentrations form 3 nM to 10 uM. A final 0.1% (v/v) DMSO was used as vehicle control and 1 uM JQ1 was used as positive. The cell were grown in the normal culture condition for 120 hrs. Then the Hoechst 33342 dye were add to each well at a final concentration of 5 μg/ml, and put back to the incubator at 37 C for 90 min. The plates were scanned immediately after the incubation with Celigo (Nexcelcom Biocesnse) for the fluorescence of the nuclear using DAPI channel, and the cell number was counted thought the analysis function of the Celigo software. The normalized cell number to the vehicle control was used to represent the cell proliferation. […] N.D.=Not determined.
SMILES,pIC50 (120 h),pIC50
"CCS(=O)(=O)Nc1cc(-c2cn(C)c3c(O)nccc23)cc2c1ccn2Cc1ccc(F)cc1Cl [Compound 26, N-(1-(2-chloro-4-fluorobenzyl)-6-(7-hydroxy-1-methyl-1H-pyrrolo[2,3-c]pyridin-3-yl)-1H-indol-4-yl)ethanesulfonamide]",> 6.70,–
"Cn1ccc2ccnc(O)c21 [Compound 1, 1-methyl-1H-pyrrolo[2,3-c]pyridin-7-ol]",< 5.30,–
"CCS(=O)(=O)Nc1cc(-c2cn(C)c3c(O)nccc23)cc2c1ccn2Cc1c(C)cccc1C [Compound 28, N-(1-(2,6-dimethylbenzyl)-6-(7-hydroxy-1-methyl-1H-pyrrolo[2,3-c]pyridin-3-yl)-1H-indol-4-yl)ethanesulfonamide]",> 6.00,–
"O=C(c1cccc(-c2ccc(F)cc2)c1)c1cn(CCCl)c2c(O)nccc12 [Compound 7, (1-(2-chloroethyl)-7-hydroxy-1H-pyrrolo[2,3-c]pyridin-3-yl)(4′-fluoro-[1,1′-biphenyl]-3-yl)methanone]",5.82,–
"O=C(c1cccc(-c2ccc(F)cc2)c1)c1cn(CCCCl)c2c(O)nccc12 [Compound 8, (1-(3-chloropropyl)-7-hydroxy-1H-pyrrolo[2,3-c]pyridin-3-yl)(4′-fluoro-[1,1′-biphenyl]-3-yl)methanone]",–,< 5.30
"CCS(=O)(=O)Nc1cc(-c2cn(C)c3c(O)nccc23)cc2c1ccn2Cc1cc(Cl)ccc1Cl [Compound 52, N-(1-(2,5-dichlorobenzyl)-6-(7-hydroxy-1-methyl-1H-pyrrolo[2,3-c]pyridin-3-yl)-1H-indol-4-yl)ethanesulfonamide]",> 6.00,–
"O=C(c1cccc(-c2ccc(F)cc2)c1)c1c[nH]c2c(O)nccc12 [Compound 3, (4′-fluoro-[1,1′-biphenyl]-3-yl)(7-hydroxy-1H-pyrrolo[2,3-c]pyridin-3-yl)methanone]",< 6.00,–
"Cn1cc(C(OCc2ccc(F)cc2)c2cccc(-c3ccc(F)cc3)c2)c2ccnc(O)c21 (centres unmarked) [Compound 9, 3-((4′-fluoro-[1,1′-biphenyl]-3-yl)((4-fluorobenzyl)oxy)methyl)-1-methyl-1H-pyrrolo[2,3-c]pyridin-7-ol]",< 5.30,–
"CCS(=O)(=O)Nc1cc(-c2cn(CCCl)c3c(O)nccc23)cc2c1ccn2Cc1c(C)cccc1C [Compound 84, N-(6-(1-(2-chloroethyl)-7-hydroxy-1H-pyrrolo[2,3-c]pyridin-3-yl)-1-(2,6-dimethylbenzyl)-1H-indol-4-yl)ethanesulfonamide]",–,> 6.00
"CCS(=O)(=O)Nc1cc(-c2cn(C)c3c(O)nccc23)cc2c1ccn2Cc1cccc(F)c1F [Compound 48, N-(1-(2,3-difluorobenzyl)-6-(7-hydroxy-1-methyl-1H-pyrrolo[2,3-c]pyridin-3-yl)-1H-indol-4-yl)ethanesulfonamide]",> 6.00,–
"CCS(=O)(=O)Nc1cc(-c2cn(C)c3c(O)nccc23)cc2c1ccn2Cc1cc(Cl)cc(OCCN(C)C)c1 [Compound 56, N-(1-(3-chloro-5-(2-(dimethylamino)ethoxy)benzyl)-6-(7-hydroxy-1-methyl-1H-pyrrolo[2,3-c]pyridin-3-yl)-1H-indol-4-yl)ethanesulfonamide]",< 7.00,–
"Cn1cc(-c2nc3c(NS(C)(=O)=O)cccc3n2Cc2ccc(F)cc2)c2ccnc(O)c21 [Compound 39, N-(1-(4-fluorobenzyl)-2-(7-hydroxy-1-methyl-1H-pyrrolo[2,3-c]pyridin-3-yl)-1H-benzo[d]imidazol-4-yl)methanesulfonamide]",> 6.00,–
"Cn1cc(-c2c[nH]c3ccc(-c4ccc(F)cc4)cc23)c2ccnc(O)c21 [Compound 17, 3-(5-(4-fluorophenyl)-1H-indol-3-yl)-1-methyl-1H-pyrrolo[2,3-c]pyridin-7-ol]",< 6.00,–
"CCS(=O)(=O)Nc1cccc2c1nc(-c1cn(C)c3c(O)nccc13)n2C(C)(c1ccccn1)c1ccccn1 [Compound 69, N-(1-(1,1-di(pyridin-2-yl)ethyl)-2-(7-hydroxy-1-methyl-1H-pyrrolo[2,3-c]pyridin-3-yl)-1H-benzo[d]imidaol-4-yl)ethanesulfonamide]",> 6.00,–
"Cn1cc(C(Oc2ccc(F)cc2)c2cccc(-c3ccc(F)cc3)c2)c2ccnc(O)c21 (centres unmarked) [Compound 10, 3-((4′-fluoro-[1,1′-biphenyl]-3-yl)(4-fluorophenoxy)methyl)-1-methyl-1H-pyrrolo[2,3-c]pyridin-7-ol]",6.52,–
"CCS(=O)(=O)Nc1cc(-c2cn(C)c3c(O)nccc23)cc2c1ccn2Cc1ccc(O)c(Cl)c1 [Compound 54, N-(1-(3-chloro-4-hydroxybenzyl)-6-(7-hydroxy-1-methyl-1H-pyrrolo[2,3-c]pyridin-3-yl)-1H-indol-4-yl)ethanesulfonamide]",< 7.00,–
"Cn1cc(-c2cc(NS(=O)(=O)C3CC3)c3cnn(Cc4ccccc4)c3c2)c2ccnc(O)c21 [Compound 46, N-(1-benzyl-6-(7-hydroxy-1-methyl-1H-pyrrolo[2,3-c]pyridin-3-yl)-1H-indazol-4-yl)cyclopropanesulfonamide]",> 6.00,–
"Cn1cc(C(=O)c2ccccc2)c2ccnc(O)c21 [Compound 5, (7-hydroxy-1-methyl-1H-pyrrolo[2,3-c]pyridin-3-yl)(phenyl)methanone]",< 5.30,–
"CNS(=O)(=O)CCc1ccc(O)cc1C(=O)c1cn(C)c2c(O)nccc12 [Compound 12, 2-(4-hydroxy-2-(7-hydroxy-1-methyl-1H-pyrrolo[2,3-c]pyridine-3-carbonyl)phenyl)-N-methylethane-1-sulfonamide]",< 6.00,–

# More lines, main results first:
pIC50 (120 h),SMILES,pIC50
> 6.00,"CS(=O)(=O)Nc1cc(-c2cn(CC(=O)CCl)c3c(O)nccc23)cc2c1ccn2Cc1ccccc1 [Compound 99, N-(1-benzyl-6-(1-(3-chloro-2-oxopropyl)-7-hydroxy-1H-pyrrolo[2,3-c]pyridin-3-yl)-1H-indol-4-yl)methanesulfonamide]",–
> 6.00,"Cn1ccnc1C(C)(c1nccn1C)n1ccc2c(C(C)(C)O)cc(-c3cn(C)c4c(=O)[nH]ccc34)cc21 [Compound 110, 3-(1-(1,1-bis(1-methyl-1H-imidazol-2-yl)ethyl)-4-(2-hydroxypropan-2-yl)-1H-indol-6-yl)-1-methyl-1,6-dihydro-7H-pyrrolo[2,3-c]pyridin-7-one]",–
> 6.00,"Cc1cccc(Cl)c1Cn1ccc2c(C(C)(C)O)cc(-c3cn(C)c4c(=O)[nH]ccc34)cc21 [Compound 114, 3-(1-(2-chloro-6-methylbenzyl)-4-(2-hydroxypropan-2-yl)-1H-indol-6-yl)-1-methyl-1,6-dihydro-7H-pyrrolo[2,3-c]pyridin-7-one]",–
> 6.00,"CC(=O)Nc1cc(-c2cn(C)c3c(=O)[nH]ccc23)cc2c1ccn2Cc1cccc(F)c1 [Compound 103, N-(1-(3-fluorobenzyl)-6-(1-methyl-7-oxo-6,7-dihydro-1H-pyrrolo[2,3-c]pyridin-3-yl)-1H-indol-4-yl)acetamide]",–
> 6.00,"CCS(=O)(=O)Nc1cc(-c2cn(CCCl)c3c(O)nccc23)cc2c1ccn2Cc1ccc(C#N)cc1 [Compound 86, N-(6-(1-(2-chloroethyl)-7-hydroxy-1H-pyrrolo[2,3-c]pyridin-3-yl)-1-(4-cyanobenzyl)-1H-indol-4-yl)ethanesulfonamide]",–
> 6.00,"Cc1cccc(C)c1Cn1ccc2c(C(C)(C)O)cc(-c3cn(C)c4c(=O)[nH]ccc34)cc21 [Compound 113, 3-(1-(2,6-dimethylbenzyl)-4-(2-hydroxypropan-2-yl)-1H-indol-6-yl)-1-methyl-1,6-dihydro-7H-pyrrolo[2,3-c]pyridin-7-one]",–
> 6.00,"Cn1cc(-c2cc3c(C(C)(C)O)cccc3n2[C@H](c2ccccc2)C2CCOCC2)c2ccnc(O)c21 [Compound 117, (S)-3-(4-(2-hydroxypropan-2-yl)-1-(phenyl(tetrahydro-2H-pyran-4-yl)methyl)-1H-indol-2-yl)-1-methyl-1H-pyrrolo[2,3-c]pyridin-7-ol]",–
> 6.00,"Cn1cc(-c2cc(C(C)(C)O)c3ccn(Cc4cccc(F)c4)c3c2)c2cc[nH]c(=O)c21 [Compound 107, 3-(1-(3-fluorobenzyl)-4-(2-hydroxypropan-2-yl)-1H-indol-6-yl)-1-methyl-1,6-dihydro-7H-pyrrolo[2,3-c]pyridin-7-one]",–
> 6.00,"CCS(=O)(=O)Nc1cc(-c2cn(C)c3c(=O)[nH]ccc23)cc2c1ccn2C(C)(c1cnccn1)c1cnccn1 [Compound 76, N-(1-(1,1-di(pyrazin-2-yl)ethyl)-6-(7-hydroxy-1-methyl-1H-pyrrolo[2,3-c]pyridin-3-yl)-1H-indol-4-yl)ethanesulfonamide]",–
> 6.00,"Cn1cc(-c2cc3c(C(C)(C)O)cccc3n2[C@@H](c2ccccc2)C2CCOCC2)c2ccnc(O)c21 [Compound 116, (R)-3-(4-(2-hydroxypropan-2-yl)-1-(phenyl(tetrahydro-2H-pyran-4-yl)methyl)-1H-indol-2-yl)-1-methyl-1H-pyrrolo[2,3-c]pyridin-7-ol]",–
6.87,"Cn1cc(-c2cc(NS(C)(=O)=O)c3ccn(CC4(C)COC4)c3c2)c2cc[nH]c(=O)c21 [Compound 74, N-(6-(1-methyl-7-oxo-6,7-dihydro-1H-pyrrolo[2,3-c]pyridin-3-yl)-1-((3-methyloxetan-3-yl)methyl)-1H-indol-4-yl)methanesulfonamide]",–
> 6.00,"CCS(=O)(=O)c1cccc2c1nc(-c1cn(C)c3c(O)nccc13)n2[C@H](c1ccccc1)C1CCOCC1 [Compound 115, (S)-3-(4-(ethylsulfonyl)-1-(phenyl(tetrahydro-2H-pyran-4-yl)methyl)-1H-benzo[d]imidazol-2-yl)-1-methyl-1H-pyrrolo[2,3-c]pyridin-7-ol]",–
> 6.00,"CCC(=O)Nc1cc(-c2cn(C)c3c(=O)[nH]ccc23)cc2c1ccn2C(C)(c1cnccn1)c1cnccn1 [Compound 104, N-(1-(1,1-di(pyrazin-2-yl)ethyl)-6-(1-methyl-7-oxo-6,7-dihydro-1H-pyrrolo[2,3-c]pyridin-3-yl)-1H-indol-4-yl)propionamide]",–
